In experiment [1] the target is GSPT1 (Homo sapiens, UniProt P15170+Q96SW2). To be noted: read-out: GSPT1 EC50; GSPT1 degradation, prolabel-tagged fusion protein in 293GT cells; highest concentration 50 µM.
Description: (§1) The Prolabel system from DiscoverX was used to develop high-throughput and quantitative assays to measure changes in IKZF1, IKZF2, and GSPT1 protein levels in response to compounds. […] The complementary fragment of beta-galactosidase (from DiscoverX), is added to the prolabel tag to form an active beta galactosidase enzyme whose activity can be precisely measured. In this way, the levels of a fusion protein with the prolabel tag can be quantified in cell lysates.
(§2) Lentiviral vectors, based on the Invitrogen pLenti6.2/V5 DEST backbone, were constructed that placed the prolabel tag upstream of IKZF1, IKZF2, or GSPT1 and expressed the fusion protein from a CMV promoter.
(§3) To ensure moderate and consistent expression of the prolabel fusion proteins across all cells in the population, stable cell lines were constructed from cells expressing a single copy of the construct. Lentivirus packaged with the constructs was made using the Virapower kit from Invitrogen.
(§4) The levels of prolabel tagged fusion proteins in compound treated cell lines were measured as follows: • Day 1, Cells were diluted to 1.0 x 10^6 cells/ml in normal growth medium. 17.5 µL of cells were plated in each well of a solid white 384 well plate. Plates were incubated overnight in a 37 °C tissue culture incubator. • Day 2, Serial dilutions of compounds were made in 384 well plates from 10 mM stocks. 15 µL of DMSO was added to each well of a 384 well plate. In the first column 15µL of stock compound was added. The solution was mixed and 15 µL was transferred to the next column. This was repeated until 20 two-fold dilutions were prepared. 2.5 µL of diluted compounds were transferred into 60 µL of cell culture medium in another 384 well plate, and mixed well. 2.5 µL of this mixture was added to the plated cells. The final DMSO concentration was 0.5% and the highest concentration of compound was 50 µM. Plates were incubated overnight (e.g., about 14 h, 18 h, or 24 h) in a 37 °C tissue culture incubator. • Day 3, Plates were removed from the incubator and allowed to equilibrate at rt for 30 minutes. Prolabel substrate (DiscoverX PathHunter Prolabel Detection Kit, User manual: 93-0180) was added as described by the manufacturers protocols. Plates were incubated at rt for three hours and luminescence was read using an Envision reader (Perkin Elmer) Data was analyzed and visualized using the Spotfire software package.
The target of experiment [2] is IKZF2 (Homo sapiens, UniProt Q96SW2+Q9UKS7). Kind of experiment: Prolabel quantification of IKZF2 protein levels in 293GT cells. Particulars: for inhibition at 10 µM: read-out: IKZF2 % protein reduction at 10 µM, 24 h; for DC50: read-out: IKZF2 EC50, Helios (IKZF2) degradation, prolabel-tagged fusion protein in 293GT cells, highest concentration 50 µM.
Description: as §1, §2, §3, §4
For experiment [3], the target named is IKZF1 (Homo sapiens, UniProt Q13422+Q96SW2). Kind of experiment: Prolabel quantification of IKZF1 protein levels in 293GT cells. To be noted: read-out: IKZF1 EC50; Ikaros (IKZF1) degradation, prolabel-tagged fusion protein in 293GT cells; highest concentration 50 µM.
Description: as §1, §2, §3, §4

Some results are limits rather than exact numbers.

IKZF2, sequence (Q9UKS7 whole entry, the tested form may be a part): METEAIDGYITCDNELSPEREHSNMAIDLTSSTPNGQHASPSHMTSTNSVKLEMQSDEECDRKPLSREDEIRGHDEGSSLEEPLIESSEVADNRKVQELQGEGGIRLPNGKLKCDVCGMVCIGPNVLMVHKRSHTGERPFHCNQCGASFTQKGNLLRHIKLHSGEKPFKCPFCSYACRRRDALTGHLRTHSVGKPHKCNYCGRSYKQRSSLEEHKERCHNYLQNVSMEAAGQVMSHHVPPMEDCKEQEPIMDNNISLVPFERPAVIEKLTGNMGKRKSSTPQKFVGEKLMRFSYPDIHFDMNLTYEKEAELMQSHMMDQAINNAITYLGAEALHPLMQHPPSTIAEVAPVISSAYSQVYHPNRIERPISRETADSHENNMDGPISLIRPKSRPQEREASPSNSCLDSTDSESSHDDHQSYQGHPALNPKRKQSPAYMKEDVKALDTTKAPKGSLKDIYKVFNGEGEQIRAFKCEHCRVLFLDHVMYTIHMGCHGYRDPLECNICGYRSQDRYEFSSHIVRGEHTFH
IKZF2, sequence (Q96SW2 whole entry, the tested form may be a part): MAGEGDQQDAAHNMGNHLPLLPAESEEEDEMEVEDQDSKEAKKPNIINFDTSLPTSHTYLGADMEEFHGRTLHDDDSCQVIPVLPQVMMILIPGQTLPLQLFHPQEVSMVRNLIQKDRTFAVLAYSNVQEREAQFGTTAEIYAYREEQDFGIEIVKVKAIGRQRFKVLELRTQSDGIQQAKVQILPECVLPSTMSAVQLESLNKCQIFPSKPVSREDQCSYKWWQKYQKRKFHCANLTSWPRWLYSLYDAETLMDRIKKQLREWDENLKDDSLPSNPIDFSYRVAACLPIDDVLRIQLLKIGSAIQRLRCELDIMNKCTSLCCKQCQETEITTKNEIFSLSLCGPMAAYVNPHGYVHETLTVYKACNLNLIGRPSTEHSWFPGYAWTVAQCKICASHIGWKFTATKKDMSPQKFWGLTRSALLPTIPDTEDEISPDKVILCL
IKZF2, sequence (Q16531 whole entry partner, the tested form may be a part): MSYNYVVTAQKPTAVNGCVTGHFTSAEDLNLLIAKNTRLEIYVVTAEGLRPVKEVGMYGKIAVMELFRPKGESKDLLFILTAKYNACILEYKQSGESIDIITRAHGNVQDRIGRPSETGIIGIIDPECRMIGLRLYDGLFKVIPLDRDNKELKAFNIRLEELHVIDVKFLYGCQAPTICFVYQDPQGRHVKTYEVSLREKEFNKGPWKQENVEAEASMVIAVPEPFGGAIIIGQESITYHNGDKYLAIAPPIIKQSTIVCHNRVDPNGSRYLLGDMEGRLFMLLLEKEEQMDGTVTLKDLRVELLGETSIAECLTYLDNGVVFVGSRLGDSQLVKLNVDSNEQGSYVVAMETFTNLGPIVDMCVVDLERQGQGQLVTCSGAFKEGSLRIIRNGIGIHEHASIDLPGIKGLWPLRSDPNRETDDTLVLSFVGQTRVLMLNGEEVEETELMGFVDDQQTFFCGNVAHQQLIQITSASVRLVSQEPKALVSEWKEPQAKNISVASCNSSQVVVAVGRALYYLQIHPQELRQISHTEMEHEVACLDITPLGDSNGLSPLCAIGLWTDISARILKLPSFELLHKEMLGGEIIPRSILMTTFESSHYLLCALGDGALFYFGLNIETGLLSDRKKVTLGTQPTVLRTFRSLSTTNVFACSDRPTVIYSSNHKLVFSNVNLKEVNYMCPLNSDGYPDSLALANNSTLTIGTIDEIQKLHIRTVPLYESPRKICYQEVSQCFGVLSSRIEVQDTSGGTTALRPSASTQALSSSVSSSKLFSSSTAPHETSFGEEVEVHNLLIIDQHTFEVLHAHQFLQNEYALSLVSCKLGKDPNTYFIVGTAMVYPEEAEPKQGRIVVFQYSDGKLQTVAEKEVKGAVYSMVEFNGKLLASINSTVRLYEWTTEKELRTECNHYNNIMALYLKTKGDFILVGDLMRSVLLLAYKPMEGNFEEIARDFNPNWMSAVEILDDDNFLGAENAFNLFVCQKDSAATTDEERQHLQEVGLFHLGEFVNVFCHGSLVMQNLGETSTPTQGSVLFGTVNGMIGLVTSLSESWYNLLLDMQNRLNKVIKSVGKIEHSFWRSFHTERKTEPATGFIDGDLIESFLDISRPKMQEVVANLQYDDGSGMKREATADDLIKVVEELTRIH
GSPT1, sequence (P15170 whole entry, the tested form may be a part): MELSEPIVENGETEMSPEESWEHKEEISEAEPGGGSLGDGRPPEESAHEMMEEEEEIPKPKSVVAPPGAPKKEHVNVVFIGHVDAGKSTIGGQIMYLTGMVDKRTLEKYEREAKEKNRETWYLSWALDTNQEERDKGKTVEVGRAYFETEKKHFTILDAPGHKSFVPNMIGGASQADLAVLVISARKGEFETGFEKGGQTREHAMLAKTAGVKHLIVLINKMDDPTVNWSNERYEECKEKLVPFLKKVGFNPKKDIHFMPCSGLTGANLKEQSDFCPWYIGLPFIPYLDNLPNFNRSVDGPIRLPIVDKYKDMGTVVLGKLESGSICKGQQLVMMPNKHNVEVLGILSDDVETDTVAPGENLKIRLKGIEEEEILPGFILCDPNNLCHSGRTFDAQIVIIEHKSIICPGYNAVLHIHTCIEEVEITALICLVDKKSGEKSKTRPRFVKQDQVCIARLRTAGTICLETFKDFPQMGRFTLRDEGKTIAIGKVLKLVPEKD
GSPT1, sequence (Q96SW2 whole entry, the tested form may be a part): as the sequence (Q96SW2 whole entry, the tested form may be a part) above
GSPT1, sequence (Q16531 whole entry partner, the tested form may be a part): as the sequence (Q16531 whole entry partner, the tested form may be a part) above
IKZF1, sequence (Q13422 whole entry, the tested form may be a part): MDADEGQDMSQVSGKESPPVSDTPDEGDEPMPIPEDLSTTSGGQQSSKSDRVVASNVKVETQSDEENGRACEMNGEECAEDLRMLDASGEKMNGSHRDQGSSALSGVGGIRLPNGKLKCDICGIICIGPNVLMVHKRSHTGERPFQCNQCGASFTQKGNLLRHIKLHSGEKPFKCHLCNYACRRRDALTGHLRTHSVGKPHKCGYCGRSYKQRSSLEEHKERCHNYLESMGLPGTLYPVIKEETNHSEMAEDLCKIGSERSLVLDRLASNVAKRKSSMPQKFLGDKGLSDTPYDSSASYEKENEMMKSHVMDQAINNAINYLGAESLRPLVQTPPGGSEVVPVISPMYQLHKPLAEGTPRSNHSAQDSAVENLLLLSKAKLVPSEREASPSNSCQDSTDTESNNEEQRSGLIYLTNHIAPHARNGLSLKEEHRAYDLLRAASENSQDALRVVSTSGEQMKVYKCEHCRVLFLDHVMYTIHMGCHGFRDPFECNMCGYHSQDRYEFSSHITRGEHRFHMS
IKZF1, sequence (Q96SW2 whole entry, the tested form may be a part): as the sequence (Q96SW2 whole entry, the tested form may be a part) above
IKZF1, sequence (Q16531 whole entry partner, the tested form may be a part): as the sequence (Q16531 whole entry partner, the tested form may be a part) above

On to `CN(C)[C@H]1CCCC[C@@H]1N(C)c1ccc2c(c1)C(=O)N(C1CCC(=O)NC1=O)C2=O` (stereo partly drawn) [Compound I-96, 5-(((1S,2S)-2-(dimethylamino)cyclohexyl)(methyl)amino)-2-(2,6-dioxopiperidin-3-yl)isoindoline-1,3-dione], for which the DC50 is over 50000 nM in experiment [1], 1570 nM in experiment [2] and 2370 nM in experiment [3]. In addition, in experiment [2] (24 h), the inhibition at 10 µM stood at 50%.
As for `CCN[C@H]1CCCC[C@@H]1N(CC)c1ccc2c(c1)CN(C1CCC(=O)NC1=O)C2=O` (stereo partly drawn) [Compound I-55, 3-(5-(ethyl((1S,2S)-2-(ethylamino)cyclohexyl)amino)-1-oxoisoindolin-2-yl)piperidine-2,6-dione], the inhibition at 10 µM in experiment [2] (24 h) was 10%. Also, the DC50 in experiment [3] is over 30000 nM.
Turning to `CN[C@H]1CCCC[C@@H]1N(C)c1ccc2c(c1F)CN(C1CCC(=O)NC1=O)C2=O` (stereo partly drawn) [Compound I-163, 3-(4-fluoro-5-(methyl((1S,2S)-2-(methylamino)cyclohexyl)amino)-1-oxoisoindolin-2-yl)piperidine-2,6-dione], the inhibition at 10 µM in experiment [2] (24 h) is 80%. Moreover, the results for the DC50 in experiment [2] and in experiment [3] were 66 nM and 570 nM, respectively.
For `CN(Cc1ccccc1)[C@H]1CCCC[C@@H]1N(C)c1ccc2c(c1)CN(C1CCC(=O)NC1=O)C2=O` (stereo partly drawn) [Compound I-6, 3-(5-(((1S,2S)-2-(benzyl(methyl)amino)cyclohexyl)(methyl)amino)-1-oxoisoindolin-2-yl)piperidine-2,6-dione] the same measures were 65%, 43 nM and over 50000 nM.
For `CN(c1ccc2c(c1)C(=O)N(C1CCC(=O)NC1=O)C2=O)[C@H]1CCCC[C@@H]1NCC(=O)O` (stereo partly drawn) [Compound I-148, ((1S,2S)-2-((2-(2,6-dioxopiperidin-3-yl)-1,3-dioxoisoindolin-5-yl)(methyl)amino)cyclohexyl)glycine], the inhibition at 10 µM in experiment [2] (24 h) was determined as 40%. Also, the figures for the DC50 in experiment [2] and in experiment [3] were 11300 nM and over 30000 nM, respectively.
As for `CN(c1ccc2c(c1)C(=O)N(C1CCC(=O)NC1=O)C2=O)[C@H]1CCCC[C@@H]1NCc1cccnc1` (stereo partly drawn) [Compound I-143, 2-(2,6-dioxopiperidin-3-yl)-5-(methyl((1S,2S)-2-((pyridin-3-ylmethyl)amino)cyclohexyl)amino)isoindoline-1,3-dione], in experiment [2] (24 h), the inhibition at 10 µM turned out to be 40%. Further, the DC50 in experiment [2] was 23100 nM; in experiment [3] it was over 30000 nM.
As for `CN(c1ccc2c(c1)C(=O)N(C1CCC(=O)NC1=O)C2=O)[C@H]1CCCC[C@@H]1NCC1(C(F)(F)F)CC1` (stereo partly drawn) [Compound I-138, 2-(2,6-dioxopiperidin-3-yl)-5-(methyl((1S,2S)-2-(((1-(trifluoromethyl)cyclopropyl)methyl)amino)cyclohexyl)amino)isoindoline-1,3-dione], in experiment [2] (24 h), the inhibition at 10 µM is 30%. Further, the DC50 in experiment [3] was over 30000 nM.
Regarding `CN[C@@H]1CCCC[C@H]1N(C)c1ccc2c(c1)CN(C1CCC(=O)NC1=O)C2=O` (stereo partly drawn) [Compound I-2, 3-(5-(methyl((1R,2R)-2-(methylamino)cyclohexyl)amino)-1-oxoisoindolin-2-yl)piperidine-2,6-dione], the DC50 in experiment [1], in experiment [2] and in experiment [3] was over 30000 nM each time. Also, the inhibition at 10 µM in experiment [2] (24 h) turned out to be 0%.
For the molecule `CCN[C@H]1CCCC[C@@H]1Nc1ccc2c(c1)CN(C1CCC(=O)NC1=O)C2=O` (stereo partly drawn) [Compound I-40, 3-(5-(((1S,2S)-2-(ethylamino)cyclohexyl)amino)-1-oxoisoindolin-2-yl)piperidine-2,6-dione], in experiment [2] (24 h), the inhibition at 10 µM was determined as 45%. The DC50 in experiment [2] was 1670 nM; in experiment [3], over 30000 nM.
Turning to `CN[C@H]1CCCC[C@@H]1Nc1ccc2c(c1)CN(C1CCC(=O)NC1=O)C2=O` (stereo partly drawn) [Compound I-10, 3-(5-(((1S,2S)-2-(methylamino)cyclohexyl)amino)-1-oxoisoindolin-2-yl)piperidine-2,6-dione], the DC50 is over 50000 nM in experiment [1], 990 nM in experiment [2] and over 30000 nM in experiment [3]. Further, the inhibition at 10 µM in experiment [2] (24 h) was 50%.
In the case of `CN[C@H]1CCCC[C@@H]1N(C)c1ccc2c(c1)C(=O)N(C1CCC(=O)NC1=O)C2=O` (stereo partly drawn) [Compound I-114, 2-(2,6-dioxopiperidin-3-yl)-5-(methyl((1S,2S)-2-(methylamino)cyclohexyl)amino)isoindoline-1,3-dione], the DC50 in experiment [1] is over 50000 nM; in experiment [2], 24 nM; in experiment [3], 290 nM. Moreover, the inhibition at 10 µM in experiment [2] (24 h) is 70%.
As for `CN(C)[C@H]1CCCC[C@@H]1Nc1ccc2c(c1)C(=O)N(C1CCC(=O)NC1=O)C2=O` (stereo partly drawn) [Compound I-153, 5-(((1S,2S)-2-(dimethylamino)cyclohexyl)amino)-2-(2,6-dioxopiperidin-3-yl)isoindoline-1,3-dione], the DC50 was over 50000 nM in experiment [1], 410 nM in experiment [2] and over 30000 nM in experiment [3]. Besides, in experiment [2] (24 h), the inhibition at 10 µM was determined as 50%.
Take `O=C1CCC(N2Cc3cc(N[C@H]4CCCC[C@@H]4O)ccc3C2=O)C(=O)N1` (stereo partly drawn) [Compound I-1, 3-(5-(((1S,2S)-2-hydroxycyclohexyl)amino)-1-oxoisoindolin-2-yl)piperidine-2,6-dione]: the DC50 in experiment [1] and in experiment [3] was over 30000 nM in each case. Besides, the inhibition at 10 µM in experiment [2] (24 h) was 20%.
Turning to `CN[C@H]1CCC[C@@H]1N(C)c1ccc2c(c1)C(=O)N(C1CCC(=O)NC1=O)C2=O` (stereo partly drawn) [Compound I-128, 2-(2,6-dioxopiperidin-3-yl)-5-(methyl((1S,2S)-2-(methylamino)cyclopentyl)amino) isoindoline-1,3-dione], in experiment [2] (24 h), the inhibition at 10 µM turned out to be 30%. In addition, the DC50 in experiment [2] and in experiment [3] was over 30000 nM in each case.
For `CC(C)N[C@H]1CCCC[C@@H]1Nc1ccc2c(c1)CN(C1CCC(=O)NC1=O)C2=O` (stereo partly drawn) [Compound I-45, 3-(5-(((1S,2S)-2-(isopropylamino)cyclohexyl)amino)-1-oxoisoindolin-2-yl)piperidine-2,6-dione], the DC50 was over 50000 nM in experiment [1], 100 nM in experiment [2] and over 30000 nM in experiment [3]. Also, in experiment [2] (24 h), the inhibition at 10 µM worked out at 70%.
As to `CN[C@H]1CCCC[C@@H]1N(C)c1ccc2c(c1)CN(C1CCC(=O)NC1=O)C2=O` (stereo partly drawn) [Compound I-8, 3-(5-(methyl((1S,2S)-2-(methylamino)cyclohexyl)amino)-1-oxoisoindolin-2-yl)piperidine-2,6-dione], the DC50 is over 50000 nM in experiment [1], 103 nM in experiment [2] and over 50000 nM in experiment [3]. In addition, the inhibition at 10 µM in experiment [2] (24 h) was determined as 65%.
For the molecule `CC(C)CN[C@H]1CCCC[C@@H]1Nc1ccc2c(c1)CN(C1CCC(=O)NC1=O)C2=O` (stereo partly drawn) [Compound I-15, 3-(5-(((1S,2S)-2-(isobutylamino)cyclohexyl)amino)-1-oxoisoindolin-2-yl)piperidine-2,6-dione], in experiment [2] (24 h), the inhibition at 10 µM amounted to 60%. For the same molecule, the figures for the DC50 in experiment [2] and in experiment [3] were 94 nM and over 30000 nM, respectively.
For `CN[C@@H]1CCCC[C@H]1N(C)c1ccc2c(c1)CN(C1CCC(=O)NC1=O)C2=O` (relative stereo) [Compound I-9, trans-3-(5-(methyl(-2-(methylamino)cyclohexyl)amino)-1-oxoisoindolin-2-yl)piperidine-2,6-dione], the values for the DC50 in experiment [1], in experiment [2] and in experiment [3] were over 50000 nM, 113 nM and over 50000 nM, respectively. Besides, in experiment [2] (10 µM, 24 h, 293GT cells), the “IKZF2 % protein reduction at 10 µM, 24 h” value turned out to be 65%.
As for `CN[C@H]1CCCCC[C@@H]1N(C)c1ccc2c(c1)C(=O)N(C1CCC(=O)NC1=O)C2=O` (stereo partly drawn) [Compound I-109, 2-(2,6-dioxopiperidin-3-yl)-5-(methyl((1S,2S)-2-(methylamino)cycloheptyl)amino)isoindoline-1,3-dione], the DC50 in experiment [1] was over 50000 nM; in experiment [2], 230 nM; in experiment [3], over 30000 nM. Besides, the inhibition at 10 µM in experiment [2] (24 h) is 70%.
Regarding `O=C1CCC(N2Cc3cc(N[C@H]4CCC[C@@H]4N4CCCCC4)ccc3C2=O)C(=O)N1` (stereo partly drawn) [Compound I-14, 3-(1-oxo-5-(((1S,2S)-2-(piperidin-1-yl)cyclopentyl)amino)isoindolin-2-yl)piperidine-2,6-dione], the inhibition at 10 µM in experiment [2] (24 h) came out at 40%. Also, the DC50 is 730 nM in experiment [2] and over 30000 nM in experiment [3].
Consider `N[C@H]1CCCC[C@@H]1Nc1ccc2c(c1)CN(C1CCC(=O)NC1=O)C2=O` (stereo partly drawn) [Compound I-7, 3-(5-(((1S,2S)-2-aminocyclohexyl)amino)-1-oxoisoindolin-2-yl)piperidine-2,6-dione], for which, in experiment [2] (24 h), the inhibition at 10 µM came to 30%. Besides, the values for the DC50 in experiment [2] and in experiment [3] were 183 nM and over 50000 nM, respectively.
For `O=C1CCC(N2Cc3cc(N[C@H]4CCCC[C@@H]4NCC4CCCCC4)ccc3C2=O)C(=O)N1` (stereo partly drawn) [Compound I-12, 3-(5-(((1S,2S)-2-((cyclohexylmethyl)amino)cyclohexyl)amino)-1-oxoisoindolin-2-yl)piperidine-2,6-dione] the same measures were 65%, 36 nM and over 30000 nM.
As to `CN(c1ccc2c(c1)C(=O)N(C1CCC(=O)NC1=O)C2=O)[C@H]1CCCC[C@@H]1NCc1ccccc1` (stereo partly drawn) [Compound I-133, 5-(((1S,2S)-2-(benzylamino)cyclohexyl)(methyl)amino)-2-(2,6-dioxopiperidin-3-yl)isoindoline-1,3-dione], the inhibition at 10 µM in experiment [2] (24 h) was 75%. Further, the figures for the DC50 in experiment [2] and in experiment [3] were 450 nM and over 30000 nM, respectively.
Regarding `O=C1CCC(N2Cc3cc(N[C@H]4CCCC[C@@H]4OCc4ccccc4)ccc3C2=O)C(=O)N1` (stereo partly drawn) [Compound I-4, 3-(5-(((1S,2S)-2-(benzyloxy)cyclohexyl)amino)-1-oxoisoindolin-2-yl)piperidine-2,6-dione], the DC50 in experiment [1] was over 30000 nM.

Source of the values: patent EP3820574B1, “3-(5-AMINO-1-OXOISOINDOLIN-2-YL)PIPERIDINE-2,6-DIONE DERIVATIVES AND THEIR USE IN THE TREATMENT OF IKAROS FAMILY ZINC FINGER 2 (IKZF2)-DEPENDENT DISEASES” (Novartis AG, priority 2018, dated 2020).
